Square brackets hold non-standard residues; d marks the D form. Peptide text beside a SMILES is read from it. * marks the point of attachment. dLys(Me3) = C[N+](C)(C)CCCC[C@@H](N)C(=O)O; Boc = CC(C)(C)OC(=O)*
Legend:
neuromuscular junction [1] = assay: Rabbit paw twitch analysis; format: in vivo; conditions: for ED90 (dose required to depress twitch tension to 10% of control): anesthetized male New Zealand white rabbits, i.v. marginal ear vein
From the text: In a large series of similar relaxants, the rabbit dose is typically 125% of that in mice. The mechanism of action was also confirmed in this test by observing train-of-four and tetanus fade, post-tetanic potentiation of single twitches and administration of the anticholinesterase drug neostigmine which reverses the relaxation. Reversibility, rapid onset and short duration are important factors to the anesthesiologist.
The following is a brief description of the methodologies used in rabbits to describe neuromuscular blocking activity of the subject compounds. A more detailed description of these methods is presented in "Microcomputer Use in Measuring Onset, Duration, and Recovery from Non-Depolarizing Skeletal Muscle Relaxants in Rabbits", P.D. Thut et al., Drug development Research 5:182, 1985.
Male New Zealand white rabbits weighing between 2.5 and 3.4 kg were anesthetized with pentobarbital (30 mg/kg) and placed on their backs upon a 40° C. water filled temperature regulation pad. Following tracheostomy, the lungs were mechanically ventilated at 28 breaths per minute with room air, using an open system delivering 200 ml/stroke. This ventilation maintained pCO2 at 38 […] and pO2 at 85 mmHg. Direct arterial blood pressure was measured from the right common carotid artery. The test compounds were administered through a cannula placed in the marginal ear vein. Each foreleg was taped to a cushioned plate held in a femur clamp attached to the spinal board rack. The left central digit of each paw was connected to a force displacement transducer for measurement of muscle tension. Nerve stimulation was provided by pairs of pin electrodes placed on both sides of the ulnar nerve at the elbow of both forearms. The right ulnar nerve was stimulated at 1 Hz, 1 pps for 0.5 msec duration. The left ulnar nerve was similarly stimulated, every 15 seconds, with addition of interspersed trains-of-four and tetanizing stimuli. The parameters reported in Table II are: potency (ED90), which is the dose required to depress twitch tension to 10% of its control value; onset (T85%), which is the time from injection until 85% of the maximal drug effect is achieved; duration, which is the time from injection until the train-of-four has recovered to 75%; blood pressure (BP), which is the percentage change of pre-drug blood pressure; and heart rate (HR), which is the percentage change from pre-drug heart rate.

neuromuscular junction [2] = assay: Mouse inclined screen grip strength test (neuromuscular junction blocking activity); format: in vivo; conditions: mice on screen inclined 45°; dose required to inhibit grip strength
Experimental: The first step, in mice, establishes a preliminary estimate of the potency and efficacy of the compounds. The animals were placed on a screen, inclined 45° to the horizontal. Effective doses caused the mice to lose their grip and slide down the inclined screen. The dose in mg/kg of body weight required to inhibit grip strength in 100% of the mice tested in a dosage group is reported.

Structure (SMILES): COC(=O)[C@@H](CCCC[N+](C)(C)C)NC(=O)[C@@H](Cc1ccccc1)NC(=O)[C@@H](CCCC[N+](C)(C)C)NC(=O)OC(C)(C)C [Compound B] (Boc-[dLys(Me3)]-[dF]-[dLys(Me3)]-OMe)
- HR (% change from pre-drug heart rate) (neuromuscular junction [1]; rabbit, equi-efficacious dose): 8.79 % change
- BP (% change of pre-drug blood pressure) (neuromuscular junction [1]; rabbit, equi-efficacious dose, carotid arterial pressure): -18.83 % change

Structure (SMILES): COc1ccc(CC2c3cc(OC)c(OC)cc3CC[N+]2(C)CCC(=O)OCCCCCOC(=O)CC[N+]2(C)CCc3cc(OC)c(OC)cc3C2Cc2ccc(OC)c(OC)c2)cc1OC (stereo not drawn) [atracurium]
- Neuromuscular Junction Blocking Activity (ED90), Mouse (neuromuscular junction [2]): 0.63 mg/kg
- ED90 (dose required to depress twitch tension to 10% of control) (neuromuscular junction [1]): 0.05 mg/kg
- T85% onset (time from injection until 85% of maximal drug effect) (neuromuscular junction [1]; rabbit, equi-efficacious dose): 126.90 s

Structure (SMILES): CC(=O)O[C@H]1C[C@@H]2CC[C@@H]3[C@H](CC[C@@]4(C)[C@H]3C[C@H]([N+]3(C)CCCCC3)[C@@H]4OC(C)=O)[C@@]2(C)C[C@@H]1[N+]1(C)CCCCC1 [pancuronium]
- ED90 (dose required to depress twitch tension to 10% of control) (neuromuscular junction [1]): 0.02 mg/kg
- Duration (time from injection until train-of-four recovered to 75%) (neuromuscular junction [1]; rabbit, equi-efficacious dose): 35.50 min
- T85% onset (time from injection until 85% of maximal drug effect) (neuromuscular junction [1]; rabbit, equi-efficacious dose): 147.50 s

Structure (SMILES): CC(=O)O[C@H]1C[C@@H]2CC[C@@H]3[C@H](CC[C@@]4(C)[C@H]3C[C@H]([N+]3(C)CCCCC3)[C@@H]4OC(C)=O)[C@@]2(C)C[C@@H]1N1CCCCC1 [vecuronium]
- Neuromuscular Junction Blocking Activity (ED90), Mouse (neuromuscular junction [2]): 0.03 mg/kg
- ED90 (dose required to depress twitch tension to 10% of control) (neuromuscular junction [1]): 0.02 mg/kg
- HR (% change from pre-drug heart rate) (neuromuscular junction [1]; rabbit, equi-efficacious dose): -9.90 % change
- T85% onset (time from injection until 85% of maximal drug effect) (neuromuscular junction [1]; rabbit, equi-efficacious dose): 97.30 s
